As a reminder, the IC50 is the concentration that inhibits the measured activity by half.

In this assay the target is T1, human chemokine receptor 2 isoform B (CCR2) (Homo sapiens, UniProt P41597).
T1 sequence (P41597 1-360 isoform P41597-2): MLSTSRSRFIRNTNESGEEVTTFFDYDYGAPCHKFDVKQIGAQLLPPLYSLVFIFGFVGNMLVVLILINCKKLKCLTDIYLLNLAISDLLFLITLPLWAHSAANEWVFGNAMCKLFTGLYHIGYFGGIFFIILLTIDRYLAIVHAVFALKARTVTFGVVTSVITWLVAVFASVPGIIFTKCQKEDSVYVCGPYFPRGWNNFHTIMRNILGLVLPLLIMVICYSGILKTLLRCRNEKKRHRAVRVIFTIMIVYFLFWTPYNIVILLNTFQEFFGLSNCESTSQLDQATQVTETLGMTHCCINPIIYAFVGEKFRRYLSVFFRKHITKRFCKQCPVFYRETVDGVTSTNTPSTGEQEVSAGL
In words: Calcium mobilization assay (FLIPR, MCP-1 stimulated CHOK1-CCR2B-A5 cells). Format: cell-based. The following applies: Ca mobilisation assay, CCR2 antagonist activity, inhibition of MCP-1 induced calcium increase. The gist of the method:
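Fluo-4-loaded CHOK1 cells stably expressing human CCR2B were preincubated with compound 20-30 min at 30 °C in DMEM/Hepes/probenecid/0.1% BSA buffer with 0.5% DMSO, then challenged with […] MCP-1. FLIPR calcium signal (max minus basal) gave IC50; agonism also monitored.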
(A change in cytosolic calcium serves as a functional read-out for many receptors and channels.)
For the molecule `C[C@H]1C(=O)N([C@@H](CCN2CCC3(CC3)[C@H](O)C2)COC(=O)C(C)(C)C)CCN1C(=O)Nc1ccc(Cl)c(Cl)c1` [Example 114, 2,2-Dimethyl-propionic acid (S)-2-[(S)-4-(3,4-dichloro-phenylcarbamoyl)-3-methyl-2-oxo-piperazin-1-yl]-4-((S)-4-hydroxy-6-aza-spiro[2.5]oct-6-yl)-butyl ester], the IC50 was determined as 6 nM. For the molecule `CC(C)C(=O)OC[C@H](CCN1CCC2(CC2)[C@H](O)C1)N1CCN(C(=O)Nc2ccc(Cl)c(Cl)c2)[C@@H](C)C1=O` [Example 115, Isobutyric acid (S)-2-[(S)-4-(3,4-dichloro-phenylcarbamoyl)-3-methyl-2-oxo-piperazin-1-yl]-4-((S)-4-hydroxy-6-aza-spiro[2.5]oct-6-yl)-butyl ester], the IC50 came to 10 nM.

Turning to `CCCCCC(=O)OC[C@H](CCN1CCC2(CC2)[C@H](O)C1)N1CCN(C(=O)Nc2ccc(Cl)c(Cl)c2)[C@@H](C)C1=O` [Example 116, Hexanoic acid (S)-2-[(S)-4-(3,4-dichloro-phenylcarbamoyl)-3-methyl-2-oxo-piperazin-1-yl]-4-((S)-4-hydroxy-6-aza-spiro[2.5]oct-6-yl)-butyl ester], the IC50 is 5 nM. Regarding `C[C@H]1C(=O)N([C@@H](CCN2CCC3(CC3)[C@H](O)C2)COC(=O)c2ccccc2)CCN1C(=O)Nc1ccc(Cl)c(Cl)c1` [Example 118, Benzoic acid (S)-2-[(S)-4-(3,4-dichloro-phenylcarbamoyl)-3-methyl-2-oxo-piperazin-1-yl]-4-((S)-4-hydroxy-6-aza-spiro[2.5]oct-6-yl)-butyl ester], the half-maximal inhibitory concentration (IC50) came to 3 nM. Under `COc1ccc(C(=O)OC[C@H](CCN2CCC3(CC3)[C@H](O)C2)N2CCN(C(=O)Nc3ccc(Cl)c(Cl)c3)[C@@H](C)C2=O)cc1` [Example 119, 4-Methoxy-benzoic acid (S)-2-[(S)-4-(3,4-dichloro-phenylcarbamoyl)-3-methyl-2-oxo-piperazin-1-yl]-4-((S)-4-hydroxy-6-aza-spiro[2.5]oct-6-yl)-butyl ester] stands 4 nM.

With `C[C@H]1C(=O)N(C[C@@H](O)CN2CCC3(CC3)[C@H](O)C2)CCN1C(=O)Nc1ccc(Cl)c(Cl)c1` [Example 120, (S)-4-[(S)-2-Hydroxy-3-((S)-4-hydroxy-6-aza-spiro[2.5]oct-6-yl)-propyl]-2-methyl-3-oxo-piperazine-1-carboxylic acid (3,4-dichloro-phenyl)-amide], the IC50 amounted to 2 nM.

With `C[C@H]1C(=O)N(C[C@@H](O)CN2CCC3(CC3)[C@H](O)C2)CCN1C(=O)Nc1cccc(Cl)c1` [Example 121, (S)-4-[(S)-2-Hydroxy-3-((S)-4-hydroxy-6-aza-spiro[2.5]oct-6-yl)-propyl]-2-methyl-3-oxo-piperazine-1-carboxylic acid (3-chloro-phenyl)-amide], the IC50 amounted to 6 nM.

On to `C[C@H]1C(=O)N(C[C@H](O)CN2CCC3(CC3)[C@H](O)C2)CCN1C(=O)Nc1ccc(Cl)c(Cl)c1` [Example 122, (S)-4-[(R)-2-Hydroxy-3-((S)-4-hydroxy-6-aza-spiro[2.5]oct-6-yl)-propyl]-2-methyl-3-oxo-piperazine-1-carboxylic acid (3,4-dichloro-phenyl)-amide], for which the IC50 came to 23 nM. To `C[C@H]1C(=O)N(C[C@H](O)CN2CCC3(CC3)[C@H](O)C2)CCN1C(=O)Nc1cccc(Cl)c1` [Example 123, (S)-4-[(R)-2-Hydroxy-3-((S)-4-hydroxy-6-aza-spiro[2.5]oct-6-yl)-propyl]-2-methyl-3-oxo-piperazine-1-carboxylic acid (3-chloro-phenyl)-amide] belongs 248 nM; to `C[C@H]1C(=O)N([C@@H](CCN2CCC3(CC3)[C@H](O)C2)C(=O)N(C)C)CCN1C(=O)Nc1ccc(Cl)c(Cl)c1` [Example 124, (S)-4-[(S)-1-Dimethylcarbamoyl-3-((S)-4-hydroxy-6-aza-spiro[2.5]oct-6-yl)-propyl]-2-methyl-3-oxo-piperazine-1-carboxylic acid (3,4-dichloro-phenyl)-amide], 4 nM; to `C[C@H]1C(=O)N([C@@H](CCN2CCC3(CC3)[C@H](O)C2)C(=O)N(C)C)CCN1C(=O)Nc1cccc(Cl)c1` [Example 125, (S)-4-[(S)-1-Dimethylcarbamoyl-3-((S)-4-hydroxy-6-aza-spiro[2.5]oct-6-yl)-propyl]-2-methyl-3-oxo-piperazine-1-carboxylic acid (3-chloro-phenyl)-amide], 16 nM.

The values above are taken from patent US8071586B2, “Heterocyclyl compounds” (Hoffmann-La Roche Inc., priority 2008, dated 2011).
